| SMILES | melting point [°C] |
| --- | --- |
| O=C(Nc1cccc(C(F)(F)F)c1)N1CCCCc2cc(O)ccc21 | 172 to 173 |
| CCCC(=O)c1cnc2c(C)cccc2c1Nc1ccccc1Cl | 130 to 131 |
| CC(=O)Nc1ccc(CCC2(c3ccccc3)CC(O)=CC(=O)O2)cc1 (centres undefined) | 155 to 160 |
| O=C(NCc1ccccc1)c1ccnc(NC(=O)c2ccc(C(F)(F)F)cc2)c1 | 181 to 183 |
| CN(CC(=O)N1c2ccccc2N(Cc2ccccc2)C(=O)[C@H]2CCC[C@H]21)Cc1ccccc1 (relative stereo) | 75 to 78 |
| OC(Cn1cncn1)(c1ccc(Oc2ccc(Cl)cc2)cc1Cl)C1CC1 (centres undefined) | 170 |
| Cc1ccccc1CO[C@H]1COCO[C@H]1C (relative stereo) | 54 |
| COc1cc(Br)nc(NC(=O)NS(=O)(=O)c2cccc3c2SCC3)n1 | 238 to 240 |
| N#Cc1ccc(Cn2c(N3CCC(CNc4nccc(O)n4)CC3)nc3ccccc32)cc1 | 198 |
| CS(=O)(=O)c1ccc(C2=C(c3ccc(F)cc3)C(=O)OC2)c(F)c1 | 160 to 162 |
| CC1Sc2c(C(=O)O)c(=O)c3cc(F)c(N4CCOCC4)cc3n21 (centres undefined) | 192 to 198 |
| COC(=O)c1cc2cc(OC)c(OC)cc2nc1/N=C/N(C)C | 166 to 168 |
| COc1ccc(C(C)C)cc1-c1cc(-c2nnnn2C2CCN(C(=O)CC(C)C)CC2)c(O)cc1O | 220 to 224 |
| CCCN(CCC)S(=O)(=O)c1cc(-c2csc(=Nc3cc(Cl)c(OC)cc3OC)n2C)ccc1Cl | 173 to 175 |
| COC(=O)c1cc(C)sc1S(N)(=O)=O | 137 to 138 |
| CNC(=O)c1cc(C(=O)OC)cc(C(=O)NC)n1 | 202 to 203 |
| O=C1c2ccccc2C(=O)N1CC(=O)N1c2ccccc2N(Cc2cccc(OCc3ccccc3)c2)C(=O)[C@H]2CCC[C@H]21 (relative stereo) | 196 to 198 |
| Cc1cc(-c2cc(C(F)(F)F)n3ncc(I)c3n2)ccc1C(F)(F)F | 160 |
| c1ccc(CN2CCN(Cc3n[nH]c4c3CCc3ccccc3-4)CC2)cc1 | 158 to 160 |
| C=CCn1c(=O)c2cc(C(=O)OCC)cn2c2ccccc21 | 177 to 178 |
| CC(C)S(=O)c1ccc2[nH]nc(Nc3nccs3)c2c1 (centres undefined) | > 240 |
| COCc1cc(-c2cc3c(cc2F)c(=O)c(C(=O)O)cn3C2CC2)cc(C)n1 | 192 to 193 |
| Cc1cc(C)cc(-c2cn(C)cc(-c3cccc(C(F)(F)F)c3)c2=O)c1 | 160 to 163 |
| CC(=O)NCCC1CNc2ccc3c(c21)CCCO3 (centres undefined) | 137 to 138 |
| COc1ccc2nc(NC(=O)C(CC3CCCC3)c3ccc(S(=O)(=O)CCc4ccccc4)cc3)sc2n1 (centres undefined) | 169 to 172 |

| SMILES | melting point [°C] |
| --- | --- |
| C=COCCOc1ccc(Oc2ccccc2)cc1 | 51 to 52 |
| CNC(=O)NC(NC(=O)C(Cl)(Cl)Cl)C(Cl)(Cl)Cl (centres undefined) | 209 to 210 |
| OCC#Cc1cccnc1 | 99 to 100 |
| CN1CCNC(=O)c2cccc(N)c21 | 130 to 133 |
| CC(CS)C(=O)N1CCCC1C(=O)NC(C)C(=O)O (centres undefined) | 128 to 130 |
| CC(=O)c1ccc(S(=O)(=O)N2CCN(C)CC2)cc1 | 118 to 119 |
| Cn1c(Cn2ccnc2)nc2ccccc21 | 151 to 152 |
| CCCCCCCC(=O)CCC(C)=O | 40 to 41 |
| O=C1C(=O)c2ccccc2C2=C1SCC1(CCN(C(=O)CSc3ccccc3)CC1)O2 | 155 to 157 |
| O=C(CCCl)c1cc2[nH]c(=O)[nH]c2cc1Cl | 201 to 204 |
| CCN(CC)c1c([N+](=O)[O-])cc(C#N)c(N)c1[N+](=O)[O-] | 146 |
| Cc1cncn1CC#CCN1CCNC1=O | 163 to 167 |
| CNc1cc(OC)ccc1[N+](=O)[O-] | 107 to 110 |
| CCC1Cc2cc(OCC(=O)O)c(C)c(C)c2C1=O (centres undefined) | 206 |
| CCn1cc(C(=O)O)c(=O)c2cc(F)c(N3CCNC(c4cc5ccccc5o4)C3)cc21 (centres undefined) | 226 to 228 |
| O=C1CCCc2snc(Cl)c21 | 84 to 85 |
| CC(Oc1ccc(Oc2nc3ccc(Cl)cc3o2)cc1)C(=O)OC[Si](C)(C)C (centres undefined) | 68 |
| Cc1cccc(-c2[nH]c(C(C)C)nc2-c2cccc(-c3ccc(S(C)(=O)=O)cc3)c2)n1 | 104 to 106 |
| COC(=O)c1ccc(C#N)c(OC)n1 | 125 |
| CC12CC(c3ccc(C=O)cc3)C3=C4CCC(=O)C=C4CCC3C1CCC2O (centres undefined) | 197 to 200 |
| CC(=O)NCC1CN(c2ccc(N3CCN(C(=O)COC(=O)CCN(C)C)CC3)c(F)c2)C(=O)O1 (centres undefined) | 136 to 137 |
| OCc1cccn1CCN1CCC(=C2c3ccccc3CCn3ccnc32)CC1 | 147 |
| O=C(O)CCC(=O)c1cc2c(s1)CCc1ccccc1C2=O | 167 to 168 |
| COc1ccc(-c2ccc3nnc(-c4ccccc4OC)n3n2)cc1OC | 95 to 97 |
| C#CCOc1ccc2c(c1)c(-c1ccc(C3CC3)cc1)nc(=O)n2Cc1ccccc1 | 112 to 113 |

| SMILES | melting point [°C] |
| --- | --- |
| O=C1NCCc2c1c1cccc3c1n2CCC3 | 254 to 256 |
| CC(C)OC(=O)C(=C1SC=CS1)c1ccc(F)cc1 | 86 |
| CC(C)(C)OC(=O)C[C@H](NC(=O)CNC(=O)CCc1ccc(C(=N)N)cc1)C(=O)NC1(C(=O)O)CCCC1 | 136 to 138 |
| O=C1CCCC(c2ccc(Cl)cc2)N1c1cccnc1 (centres undefined) | 107 to 108 |
| CC(C)C(S)C(=O)NC1(C(=O)NC(Cc2ccc(-c3ccoc3)nc2)C(=O)O)CCCC1 (centres undefined) | 52 to 55 |
| CC(C)c1cc(O)n[nH]1 | 189 to 193 |
| COc1cccc(-c2cc(C)cc3c2OC(CN)C3)c1OC (centres undefined) | 97 to 99 |
| CCCCCCNc1ncnc2c1ncn2C1CC(F)C(CO)O1 (centres undefined) | 83 |
| CCn1c(=O)c2[nH]c(/C=C/c3cccc(Br)c3)nc2n(CC)c1=O | > 270 |
| CC(=O)Nc1cc(N2CCCCC2)nc(=N)n1O | 204 to 205 |
| CCCCCCCCCCCCCCCCCCOc1cc2ccccc2c(N)c1O | 97 to 99 |
| CC1(C)Oc2ccc(C#N)cc2[C@@H](NC(=O)Nc2cccc(-c3nnn[nH]3)c2)[C@@H]1O | 204 to 208 |
| CCOC(=O)c1cnc2c(C)cc(-c3ccc(C(F)(F)F)cc3)cn12 | 128 |
| CN(C)C(=O)N(Cc1ccccc1)C(=O)c1cccc(-c2nc(=O)c3ccccc3s2)n1 | 222 to 224 |
| COC(=O)Nc1cc(Oc2ccc3c(ccn3C(=O)Nc3ccc(CN4CCN(C)CC4)c(C(F)(F)F)c3)c2)ncn1 | 138 to 140 |
| NCc1ccc2sc3ccccc3c(=O)c2c1 | 134 to 136 |
| COC(=O)CCC/C=C\CN1C(=O)c2ccccc2C1=O | 47 to 49 |
| N#CCc1cccc2c(C3CCCC3)nccc12 | 99.4 to 100 |
| CC(=O)Nc1ccc(S(=O)(=O)c2ccc(Br)cc2)cc1 | 195 to 199 |
| COc1ccc(C2CNC(=O)O2)cc1OC (centres undefined) | 114 to 117 |
| O=C(N1CCc2cccc(O)c2CC1)C(F)(F)F | 183 to 186 |
| CC(O)Cc1c2c(cc3c(=O)cc(C(=O)O)oc13)CCCC2 (centres undefined) | 235 |
| CCOC(=O)Cc1cc(C)c(C(=O)c2ccc(C)cc2)n1C | 90 to 93 |
| CCSc1sc(C(=O)N2CCCC2)c2c1-c1oncc1C(C)(C)C2 | 91 to 93 |

From a melting point compilation (Tetko et al.; mined from patent text by program, amines drawn as free bases though some values may be those of a salt)
